The source of these data is ChEMBL document CHEMBL3739357, “Replacement of cardiotoxic aminopiperidine linker with piperazine moiety reduces cardiotoxicity? Mycobacterium tuberculosis novel bacterial topoisomerase inhibitors” (Bioorg Med Chem, 2016).

Structures are written as SMILES. ≈ marks a conversion by molar mass, not a printed value.

The target of data set [1] is DNA gyrase subunit A/DNA gyrase subunit B (Mycobacterium tuberculosis (strain ATCC 25618 / H37Rv), UniProt P9WG45+P9WG47). Kind of data set: Inhibition of Mycobacterium tuberculosis DNA gyrase assessed as inhibition of supercoiling activity using relaxed pBR322 plasmid as substrate after 30 mins.
Data set [2] deals with Mycobacterium tuberculosis. Briefly: Antimycobacterial activity against Mycobacterium tuberculosis H37Rv after 7 days by alamar blue assay. Conditions: 168 h. Format: functional.
A short description of data set [3]: Cytotoxicity against mouse RAW264.7 cells at 50 uM after 48 hrs by MTT assay. It is filed as cell-based. Conditions: read-out: INH.
The species named for data set [4] is Danio rerio. Kind of data set: Toxicity in zebrafish embryo assessed as heart rate at 30 uM after 4 hrs. Format: organism-based. Conditions: in vivo.
Data set [5] is filed under the species Danio rerio. Kind of data set: Toxicity in zebrafish embryo assessed as artrio-ventricular ratio at 30 uM after 4 hrs. Format: organism-based. Conditions: in vivo.
The species entered for data set [6] is Danio rerio. Briefly: Toxicity in zebrafish embryo assessed as heart rate at 10 uM after 4 hrs. It is filed as organism-based. Conditions: in vivo.
Data set [7] is filed under the species Danio rerio. Briefly: Toxicity in zebrafish embryo assessed as artrio-ventricular ratio at 10 uM after 4 hrs. Format: organism-based. Conditions: in vivo.

Chain of DNA gyrase subunit A/DNA gyrase subunit B (P9WG45 whole entry): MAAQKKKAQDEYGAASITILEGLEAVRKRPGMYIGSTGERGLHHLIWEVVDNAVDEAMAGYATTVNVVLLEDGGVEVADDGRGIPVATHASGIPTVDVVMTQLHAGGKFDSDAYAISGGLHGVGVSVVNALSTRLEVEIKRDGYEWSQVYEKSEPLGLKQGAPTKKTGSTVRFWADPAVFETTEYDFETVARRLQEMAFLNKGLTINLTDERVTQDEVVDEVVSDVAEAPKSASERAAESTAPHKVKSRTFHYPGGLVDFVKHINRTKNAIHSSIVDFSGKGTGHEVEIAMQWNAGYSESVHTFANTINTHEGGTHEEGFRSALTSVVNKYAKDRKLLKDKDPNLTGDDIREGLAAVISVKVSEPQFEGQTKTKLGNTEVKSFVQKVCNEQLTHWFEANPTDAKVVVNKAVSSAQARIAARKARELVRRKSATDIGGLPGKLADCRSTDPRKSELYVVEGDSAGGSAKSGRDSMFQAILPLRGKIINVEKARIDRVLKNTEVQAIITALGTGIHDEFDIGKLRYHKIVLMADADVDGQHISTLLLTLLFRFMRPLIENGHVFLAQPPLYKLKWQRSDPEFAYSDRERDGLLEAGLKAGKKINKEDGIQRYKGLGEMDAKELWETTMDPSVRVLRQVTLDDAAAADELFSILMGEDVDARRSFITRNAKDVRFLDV
Chain of DNA gyrase subunit A/DNA gyrase subunit B (P9WG47 whole entry): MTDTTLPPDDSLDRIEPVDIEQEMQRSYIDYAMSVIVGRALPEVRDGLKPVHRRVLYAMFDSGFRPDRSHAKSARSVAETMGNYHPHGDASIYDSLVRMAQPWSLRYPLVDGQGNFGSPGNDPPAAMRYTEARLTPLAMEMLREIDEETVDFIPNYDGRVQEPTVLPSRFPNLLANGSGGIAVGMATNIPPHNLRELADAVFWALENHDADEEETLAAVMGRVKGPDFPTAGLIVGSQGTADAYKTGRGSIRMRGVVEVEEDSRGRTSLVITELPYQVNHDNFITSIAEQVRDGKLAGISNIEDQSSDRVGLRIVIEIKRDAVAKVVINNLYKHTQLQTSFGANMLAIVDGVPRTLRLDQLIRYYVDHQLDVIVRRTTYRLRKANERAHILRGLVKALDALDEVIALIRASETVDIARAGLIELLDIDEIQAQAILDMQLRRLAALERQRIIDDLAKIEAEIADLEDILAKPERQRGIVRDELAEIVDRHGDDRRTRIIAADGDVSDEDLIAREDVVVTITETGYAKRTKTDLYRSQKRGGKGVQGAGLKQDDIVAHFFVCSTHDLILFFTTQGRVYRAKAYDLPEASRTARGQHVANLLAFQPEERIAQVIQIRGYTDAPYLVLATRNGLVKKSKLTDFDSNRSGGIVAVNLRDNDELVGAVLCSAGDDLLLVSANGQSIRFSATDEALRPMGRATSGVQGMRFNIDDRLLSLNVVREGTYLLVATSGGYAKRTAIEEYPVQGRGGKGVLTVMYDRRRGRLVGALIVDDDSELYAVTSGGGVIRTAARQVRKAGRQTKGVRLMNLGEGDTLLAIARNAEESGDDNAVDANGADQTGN

Take `COc1ccc(CNC(=S)N2CCN(CCn3c(=O)ccc4ncc(OC)cc43)CC2)cc1`: the IC50 in data set [1] came to 15.5 µM. It took 26.7 µM (≈ 12.5 µg/mL) to inhibit growth in data set [2] (MIC). Also, the cytotoxicity at 48 h, 50 µM in data set [3] was 17.1%.
As to `COc1cnc2ccc(=O)n(CCN3CCN(Cc4ccc([N+](=O)[O-])cc4)CC3)c2c1`, in data set [1], the IC50 came to 0.98 µM. For the same compound, the minimal inhibitory concentration (MIC) in data set [2] came out at 7.38 µM (≈ 3.13 µg/mL). Moreover, in data set [3], the cytotoxicity at 48 h, 50 µM is 37.6%.
For the compound `COc1cnc2ccc(=O)n(CCN3CCN(C(=S)Nc4ccc(C)cc4)CC3)c2c1`, in data set [1], the IC50 came out at 11.5 µM. The compound also had an MIC in data set [2] of 10.7 µM (≈ 4.66 µg/mL). Further, the cytotoxicity at 48 h, 50 µM in data set [3] turned out to be 26.8%.
For the compound `COc1ccc(CNC(=O)N2CCN(CCn3c(=O)ccc4ncc(OC)cc43)CC2)cc1`, the IC50 in data set [1] is 14.6 µM. The MIC in data set [2] came out at 27.7 µM (≈ 12.5 µg/mL). Further, in data set [3], the cytotoxicity at 48 h, 50 µM is 37.6%.
The corresponding values for `COc1cnc2ccc(=O)n(CCN3CCN(C(=O)Nc4ccc(F)cc4)CC3)c2c1` are 11.6 µM, 14.7 µM (≈ 6.25 µg/mL) and 25.2%.
With `COc1cnc2ccc(=O)n(CCN3CCN(C(=O)Nc4ccc(C(C)=O)cc4)CC3)c2c1`, the IC50 in data set [1] was 19.4 µM. The MIC in data set [2] came to 26.9 µM (≈ 12.1 µg/mL). Besides, in data set [3], the cytotoxicity at 48 h, 50 µM was determined as 18.6%.
Consider `COc1cnc2ccc(=O)n(CCN3CCN(Cc4ccc(Cl)cc4)CC3)c2c1`, for which the IC50 in data set [1] was determined as 0.81 µM. In data set [2], this compound registered an MIC of 10.1 µM (≈ 4.17 µg/mL). For the same compound, the cytotoxicity at 48 h, 50 µM in data set [3] is 26.5%.
Take `COc1cnc2ccc(=O)n(CCN3CCN(C(=S)Nc4ccc(C(C)=O)cc4)CC3)c2c1`: the IC50 in data set [1] is 16.4 µM. In data set [2], this compound showed an MIC of 10.7 µM (≈ 4.96 µg/mL). Moreover, in data set [3], the cytotoxicity at 48 h, 50 µM was found to be 3.16%.
For `COc1cnc2ccc(=O)n(CCN3CCN(C(=S)Nc4ccccc4)CC3)c2c1` the same measures were 15.4 µM, 29.5 µM (≈ 12.5 µg/mL) and 32.6%.
On to `COc1cnc2ccc(=O)n(CCN3CCN(C(=O)Nc4ccc([N+](=O)[O-])cc4)CC3)c2c1`, for which the IC50 in data set [1] stood at 0.29 µM. For the same compound, in data set [2], 3.45 µM (≈ 1.56 µg/mL) was the least that counted as inhibitory (MIC). The cytotoxicity at 48 h, 50 µM in data set [3] was determined as 5.08%. Further, the Activity entry in the data set filed under Danio rerio [4], in the data set filed under Danio rerio [5], in the data set listed under Danio rerio [6] and in the data set listed under Danio rerio [7] was “Toxic” each time.
For `COc1cnc2ccc(=O)n(CCN3CCN(C(=O)Nc4ccc(C)cc4)CC3)c2c1`, the IC50 in data set [1] worked out at 2.68 µM. This compound also yielded an MIC in data set [2] of 7.41 µM (≈ 3.12 µg/mL). Also, in data set [3], the cytotoxicity at 48 h, 50 µM stood at 32.3%.
Regarding `COc1cnc2ccc(=O)n(CCN3CCN(C(=S)NCc4ccc(Cl)cc4)CC3)c2c1`, the IC50 in data set [1] was 0.95 µM. The compound also displayed an MIC in data set [2] of 4.31 µM (≈ 2.03 µg/mL). The cytotoxicity at 48 h, 50 µM in data set [3] was 24.9%.
Turning to `COc1cnc2ccc(=O)n(CCN3CCN(C(=O)NCc4ccc(Cl)cc4)CC3)c2c1`, the IC50 in data set [1] turned out to be 0.92 µM. In addition, in data set [2], the MIC was found to be 6.6 µM (≈ 3.01 µg/mL). In data set [3], the cytotoxicity at 48 h, 50 µM was 24.6%.
As to `COc1cnc2ccc(=O)n(CCN3CCN(C(=O)Nc4ccccc4)CC3)c2c1`, the IC50 in data set [1] came out at 13.5 µM. In data set [2], this compound returned an MIC of 30.7 µM (≈ 12.5 µg/mL). For the same compound, in data set [3], the cytotoxicity at 48 h, 50 µM amounted to 9.54%.
For the compound `COc1cnc2ccc(=O)n(CCN3CCN(C(=S)Nc4ccc([N+](=O)[O-])cc4)CC3)c2c1`, the IC50 in data set [1] came out at 18.5 µM. Also, the minimal inhibitory concentration (MIC) in data set [2] was 26.7 µM (≈ 12.5 µg/mL). Further, in data set [3], the cytotoxicity at 48 h, 50 µM worked out at 17.3%.
For `COc1cnc2ccc(=O)n(CCN3CCN(Cc4ccc(Br)cc4)CC3)c2c1` the same measures were 6.44 µM, 13.7 µM (≈ 6.25 µg/mL) and 2.15%.
For `COc1cnc2ccc(=O)n(CCN3CCN(C(=S)Nc4ccc(Cl)cc4)CC3)c2c1` the same measures were 12.8 µM, 13.6 µM (≈ 6.25 µg/mL) and 6.59%.
The corresponding values for `COc1cnc2ccc(=O)n(CCN3CCN(C(=S)Nc4ccc(F)cc4)CC3)c2c1` are 14.7 µM, 14.2 µM (≈ 6.25 µg/mL) and 21.6%.
In the case of `COc1cnc2ccc(=O)n(CCN3CCN(C(=O)Nc4ccc(Br)cc4)CC3)c2c1`, in data set [1], the 50% inhibitory concentration (IC50) came to 0.75 µM. Besides, the MIC in data set [2] came out at 3.21 µM (≈ 1.56 µg/mL). Moreover, the cytotoxicity at 48 h, 50 µM in data set [3] turned out to be 24.4%.
Regarding `COc1cnc2ccc(=O)n(CCN3CCN(C(=S)Nc4ccc(Br)cc4)CC3)c2c1`, the IC50 in data set [1] was determined as 0.49 µM. The MIC in data set [2] was found to be 3.8 µM (≈ 1.91 µg/mL). Further, the cytotoxicity at 48 h, 50 µM in data set [3] turned out to be 1.06%.
The corresponding values for `COc1ccc(CN2CCN(CCn3c(=O)ccc4ncc(OC)cc43)CC2)cc1` are 1.34 µM, 3.82 µM (≈ 1.56 µg/mL) and 15.9%.
Regarding `COc1cnc2ccc(=O)n(CCN3CCN(Cc4ccccc4)CC3)c2c1`, in data set [1], the IC50 amounted to 0.94 µM. In data set [2], this compound had an MIC of 4.12 µM (≈ 1.56 µg/mL). The cytotoxicity at 48 h, 50 µM in data set [3] was determined as 15%.
`COc1cnc2ccc(=O)n(CCN3CCN(C(=O)Nc4ccc(Cl)cc4)CC3)c2c1`: the IC50 in data set [1] was 0.32 µM. In data set [2], this compound had an MIC of 7.06 µM (≈ 3.12 µg/mL). Besides, the cytotoxicity at 48 h, 50 µM in data set [3] was 27%. The Activity entry in the data set listed under Danio rerio [4] and in the data set filed under Danio rerio [5] was “Toxic” throughout.
For `COc1cnc2ccc(=O)n(CCN3CCN(Cc4ccc(F)cc4)CC3)c2c1`, in data set [1], the IC50 was found to be 0.91 µM. The MIC in data set [2] worked out at 15 µM (≈ 5.95 µg/mL). For the same compound, in data set [3], the cytotoxicity at 48 h, 50 µM turned out to be 26.4%.
Compound `CC[C@@H](CO)NCCN[C@@H](CC)CO` [ETHAMBUTOL] showed a minimal inhibitory concentration (MIC) in data set [2] of 9.84 µM (≈ 2.01 µg/mL).
`COc1c(N2C[C@@H]3CCCN[C@@H]3C2)c(F)cc2c(=O)c(C(=O)O)cn(C3CC3)c12` [MOXIFLOXACIN] displayed an MIC in data set [2] of 2.4 µM (≈ 0.963 µg/mL). Compared with the last compound, the MIC is about 4.1-fold lower.
Consider `CO[C@@H]1[C@@H](OC(N)=O)[C@@H](O)[C@H](Oc2ccc3c(O)c(NC(=O)c4ccc(O)c(CC=C(C)C)c4)c(=O)oc3c2C)OC1(C)C` [NOVOBIOCIN], for which the minimum inhibitory concentration (MIC) in data set [2] is above 200 µM. Besides, the cytotoxicity at 48 h, 50 µM in data set [3] is 19.3%.
